Assay results: EP4603105A1, “PHARMACEUTICAL COMPOSITION CONTAINING CYCLIC COMPOUND HAVING SELECTIVE KRAS INHIBITORY EFFECT AGAINST HRAS AND NRAS” (CHUGAI SEIYAKU KABUSHIKI KAISHA, priority 2022, dated 2024)
Where a SMILES comes first, the peptide text is derived from it. Bridges are numbered along the chain shown (N, C = ends). [ ]: non-standard residue; d: D form. The star is where a group is joined. hPhe(3-Cl-4-CF3) = N[C@@H](CCc1ccc(C(F)(F)F)c(Cl)c1)C(=O)O; NPrPhe(4-CF3) = CCCN[C@@H](Cc1ccc(C(F)(F)F)cc1)C(=O)O; Abu(4,4,4-F3) = N[C@@H](CC(F)(F)F)C(=O)O; NMeGly(cPent) = CN[C@H](C(=O)O)C1CCCC1; cisHyp = O=C(O)[C@@H]1C[C@H](O)CN1; Hyp = O=C(O)[C@@H]1C[C@@H](O)CN1; Gly(cBu) = N[C@H](C(=O)O)C1CCC1; NMeD = CN[C@@H](CC(=O)O)C(=O)O; NMeL = CN[C@@H](CC(C)C)C(=O)O; hPip = O=C(O)[C@@H]1CCCCCN1; Morpholide = C1CN(*)CCO1; NMeA = CN[C@@H](C)C(=O)O; Ac5c = NC1(C(=O)O)CCCC1; Aze = O=C(O)[C@@H]1CCN1; Ethyl(2,2-F2) = FC(F)C*; Abu = CC[C@H](N)C(=O)O; Sar = CNCC(=O)O

Columns and labels:
[1] = system: human lung cancer strain NCI-H441; type: cell-based
Method in brief: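 Readout: […] after the ATP-based reagent. Compound: serial dilutions in dimethyl sulfoxide.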

[2] = target: GDP-bound NRAS wild-type protein (Homo sapiens, UniProt P01111); assay: Binding to NRAS by surface plasmon resonance (SPR), KD and KD ratio to KRAS; settings: ratio of KD for GDP-bound NRAS wild-type protein to KD for KRAS
Method in brief: (§1)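 Affinity is measured by surface plasmon resonance at 30°C against captured, GDP-loaded RAS carrying a biotinylated Avi tag. Compounds are titrated by single-cycle kinetics, and KD comes from a 1:1 fit.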

HRAS wild-type protein = HRAS wild-type protein (Homo sapiens, UniProt P01112); assay: Binding to HRAS by surface plasmon resonance (SPR), KD and KD ratio to KRAS; settings: ratio of KD for HRAS wild-type protein to KD for KRAS
Method in brief: as §1

HRAS wild-type protein, sequence (P01112 whole entry): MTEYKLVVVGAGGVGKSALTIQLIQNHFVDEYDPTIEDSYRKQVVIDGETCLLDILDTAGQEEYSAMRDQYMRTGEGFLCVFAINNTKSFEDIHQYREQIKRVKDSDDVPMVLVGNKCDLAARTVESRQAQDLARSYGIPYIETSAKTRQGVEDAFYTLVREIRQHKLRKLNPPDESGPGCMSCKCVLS
GDP-bound NRAS wild-type protein, sequence (P01111 whole entry): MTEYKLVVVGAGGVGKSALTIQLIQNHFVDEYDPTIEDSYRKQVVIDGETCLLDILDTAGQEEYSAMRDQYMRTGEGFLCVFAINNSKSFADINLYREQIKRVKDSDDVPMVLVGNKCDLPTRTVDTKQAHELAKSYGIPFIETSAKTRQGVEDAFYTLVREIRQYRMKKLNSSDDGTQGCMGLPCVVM

Compound | IC50 [1] | NRAS /KRAS [2] | HRAS /KRAS (HRAS wild-type protein)
CCCN1C(=O)[C@@H]2CCN2C(=O)[C@H](C)N(C)C(=O)[C@H]([C@@H](C)CC)NC(=O)[C@H](CC(C)C)N(C)C(=O)C[C@@H](C(=O)N2CCOCC2)N(C)C(=O)[C@H](C2CCCC2)N(C)C(=O)C2(CCCC2)NC(=O)[C@@H]2C[C@@H](O)CN2C(=O)[C@H](CCc2ccc(C(F)(F)F)c(Cl)c2)NC(=O)CN(C)C(=O)[C@@H]1Cc1ccc(C(F)(F)F)cc1 [PP0239] ([NMeL]I[NMeA][Aze][NPrPhe(4-CF3)][Sar][hPhe(3-Cl-4-CF3)][Hyp][Ac5c][NMeGly(cPent)][NMeD]-Morpholide; lactam N-11) | 6.2 nM | C (A compound having a KD ratio of 0.1 or more and less than 3 is denoted as C) | B (a compound having 3 or more and less than 10 is denoted as B)
CCCN1C(=O)CN(C)C(=O)CN(C)C(=O)[C@H]([C@@H](C)CC)NC(=O)[C@H](CC(C)C)N(C)C(=O)C[C@@H](C(=O)N2CCOCC2)N(C)C(=O)[C@H](C2CCCC2)N(C)C(=O)C2(CCCC2)NC(=O)[C@@H]2C[C@@H](O)CN2C(=O)[C@H](CCc2ccc(C(F)(F)F)c(Cl)c2)NC(=O)CN(C)C(=O)[C@@H]1Cc1ccc(C(F)(F)F)cc1 [PP0241] ([NMeL]I[Sar][Sar][NPrPhe(4-CF3)][Sar][hPhe(3-Cl-4-CF3)][Hyp][Ac5c][NMeGly(cPent)][NMeD]-Morpholide; lactam N-11) | 4.9 nM | B (a compound having 3 or more and less than 10 is denoted as B) | C (A compound having a KD ratio of 0.1 or more and less than 3 is denoted as C)
CCCN1C(=O)[C@@H]2CCN2C(=O)[C@H](C)N(C)C(=O)[C@H]([C@@H](C)CC)NC(=O)[C@H](CC(C)C)N(C)C(=O)C[C@@H](C(=O)N2CCOCC2)N(C)C(=O)[C@H](C2CCCC2)N(C)C(=O)C2(CCCC2)NC(=O)[C@@H]2C[C@H](OCC)CN2C(=O)[C@H](CCc2ccc(C(F)(F)F)c(Cl)c2)NC(=O)CN(C)C(=O)[C@@H]1Cc1ccc(C(F)(F)F)cc1 [PP0242] ([NMeL]I[NMeA][Aze][NPrPhe(4-CF3)][Sar][hPhe(3-Cl-4-CF3)][cisHyp](Et)[Ac5c][NMeGly(cPent)][NMeD]-Morpholide; lactam N-11) | 5 nM | C (A compound having a KD ratio of 0.1 or more and less than 3 is denoted as C) | C (A compound having a KD ratio of 0.1 or more and less than 3 is denoted as C)
CCCN1C(=O)CN(C)C(=O)CN(C)C(=O)[C@H]([C@@H](C)CC)NC(=O)[C@H](CC(C)C)N(C)C(=O)C[C@@H](C(=O)N2CCOCC2)N(C)C(=O)[C@H](C2CCCC2)N(C)C(=O)C2(CCCC2)NC(=O)[C@@H]2C[C@H](OCC)CN2C(=O)[C@H](CCc2ccc(C(F)(F)F)c(Cl)c2)NC(=O)CN(C)C(=O)[C@@H]1Cc1ccc(C(F)(F)F)cc1 [PP0243] ([NMeL]I[Sar][Sar][NPrPhe(4-CF3)][Sar][hPhe(3-Cl-4-CF3)][cisHyp](Et)[Ac5c][NMeGly(cPent)][NMeD]-Morpholide; lactam N-11) | 23.2 nM | B (a compound having 3 or more and less than 10 is denoted as B) | C (A compound having a KD ratio of 0.1 or more and less than 3 is denoted as C)
CCCN1C(=O)CN(C)C(=O)CN(C)C(=O)[C@H]([C@@H](C)CC)NC(=O)[C@H](CC(C)C)N(C)C(=O)C[C@@H](C(=O)N2CCOCC2)N(C)C(=O)[C@H](C2CCCC2)N(C)C(=O)C2(CCCC2)NC(=O)[C@@H]2C[C@@H](OCC(F)F)CN2C(=O)[C@H](CCc2ccc(C(F)(F)F)c(Cl)c2)NC(=O)CN(C)C(=O)[C@@H]1Cc1ccc(C(F)(F)F)cc1 [PP0246] ([NMeL]I[Sar][Sar][NPrPhe(4-CF3)][Sar][hPhe(3-Cl-4-CF3)][Hyp](Ethyl(2,2-F2))[Ac5c][NMeGly(cPent)][NMeD]-Morpholide; lactam N-11) | 1.8 nM | B (a compound having 3 or more and less than 10 is denoted as B) | C (A compound having a KD ratio of 0.1 or more and less than 3 is denoted as C)
CCCN1C(=O)CN(C)C(=O)CN(C)C(=O)[C@H]([C@@H](C)CC)NC(=O)[C@@H]2CCCCCN2C(=O)C[C@@H](C(=O)N2CCOCC2)N(C)C(=O)[C@H](C2CCCC2)N(C)C(=O)C2(CCCC2)NC(=O)[C@@H]2CCCN2C(=O)[C@H](CCc2ccc(C(F)(F)F)c(Cl)c2)NC(=O)CN(C)C(=O)[C@@H]1Cc1ccc(C(F)(F)F)cc1 [PP0247] ([hPip]I[Sar][Sar][NPrPhe(4-CF3)][Sar][hPhe(3-Cl-4-CF3)]P[Ac5c][NMeGly(cPent)][NMeD]-Morpholide; lactam N-11) | 41.3 nM | B (a compound having 3 or more and less than 10 is denoted as B) | C (A compound having a KD ratio of 0.1 or more and less than 3 is denoted as C)
CCCN1C(=O)CN(C)C(=O)CN(C)C(=O)[C@H](CC)NC(=O)[C@H](CC(C)C)N(C)C(=O)C[C@@H](C(=O)N2CCOCC2)N(C)C(=O)[C@H](C2CCCC2)N(C)C(=O)C2(CCCC2)NC(=O)[C@@H]2CCCN2C(=O)[C@H](CCc2ccc(C(F)(F)F)c(Cl)c2)NC(=O)CN(C)C(=O)[C@@H]1Cc1ccc(C(F)(F)F)cc1 [PP0248] ([NMeL][Abu][Sar][Sar][NPrPhe(4-CF3)][Sar][hPhe(3-Cl-4-CF3)]P[Ac5c][NMeGly(cPent)][NMeD]-Morpholide; lactam N-11) | 84 nM | B (a compound having 3 or more and less than 10 is denoted as B) | B (a compound having 3 or more and less than 10 is denoted as B)
CCCN1C(=O)CN(C)C(=O)CN(C)C(=O)[C@H](CC(F)(F)F)NC(=O)[C@H](CC(C)C)N(C)C(=O)C[C@@H](C(=O)N2CCOCC2)N(C)C(=O)[C@H](C2CCCC2)N(C)C(=O)C2(CCCC2)NC(=O)[C@@H]2CCCN2C(=O)[C@H](CCc2ccc(C(F)(F)F)c(Cl)c2)NC(=O)CN(C)C(=O)[C@@H]1Cc1ccc(C(F)(F)F)cc1 [PP0249] ([NMeL][Abu(4,4,4-F3)][Sar][Sar][NPrPhe(4-CF3)][Sar][hPhe(3-Cl-4-CF3)]P[Ac5c][NMeGly(cPent)][NMeD]-Morpholide; lactam N-11) | 25.5 nM | B (a compound having 3 or more and less than 10 is denoted as B) | C (A compound having a KD ratio of 0.1 or more and less than 3 is denoted as C)
CCCN1C(=O)CN(C)C(=O)CN(C)C(=O)[C@H](C2CCC2)NC(=O)[C@H](CC(C)C)N(C)C(=O)C[C@@H](C(=O)N2CCOCC2)N(C)C(=O)[C@H](C2CCCC2)N(C)C(=O)C2(CCCC2)NC(=O)[C@@H]2CCCN2C(=O)[C@H](CCc2ccc(C(F)(F)F)c(Cl)c2)NC(=O)CN(C)C(=O)[C@@H]1Cc1ccc(C(F)(F)F)cc1 [PP0250] ([NMeL][Gly(cBu)][Sar][Sar][NPrPhe(4-CF3)][Sar][hPhe(3-Cl-4-CF3)]P[Ac5c][NMeGly(cPent)][NMeD]-Morpholide; lactam N-11) | 6.7 nM | B (a compound having 3 or more and less than 10 is denoted as B) | C (A compound having a KD ratio of 0.1 or more and less than 3 is denoted as C)
